Consider 68 molecules from patent US20260053861A1, “CELL COMPOSITIONS AND METHODS OF USING THE SAME” (THE REGENTS OF THE UNIVERSITY OF CALIFORNIA, priority 2022, published 2026).

Each structure is given as a SMILES string. Structures can show the parent of a compound that is named as a salt.

The test system of the first test is hPSC-SCs.
Details: not given
The molecule `C=C1CC[C@H](O)C/C1=C/C=C1\CCC[C@]2(C)[C@@H]([C@H](C)CCCC(C)C)CC[C@@H]12` [Cholecalciferol] yielded a z.score.t of 1.034. Molecule `O=C1C=CC(=O)c2c1ccc1c2ccc2ccccc21` [Chrysene-1,4-quinone] showed a z.score.t of −1.823. Still for that read-out and setting: to `CC(C)(C)NCC(O)c1cc(Cl)c(N)c(Cl)c1` (centres unmarked) [Clenbuterol hydrochloride] belongs 0.4048; to `Cc1c(Cl)cccc1Nc1ncccc1C(=O)O.NCCCC[C@H](N)C(=O)O` [Clonixin Lysinate], 0.9603. The molecule `COc1cc2c(c(OC)c1OC)-c1ccc(OC)c(=O)cc1[C@@H](NC(C)=O)CC2` [Colchicine] showed a z.score.t of −1.804. On the same count and under the same terms, next, `CCN1C[C@]2(COC)CC[C@H](O)[C@@]34C5C[C@@H]6[C@@H](OC)C[C@](O)(C(CC23)C14)C5[C@H]6OC(C)=O` (some centres unmarked) [Condelphine]: 2.361; `COc1cc2cc3c4cc(OC)c(OC)cc4cc[n+]3c(C)c2cc1OC.O.[Cl-]` [Coralyne chloride hydrate]: −1.014. The same measure, in the same setting: next, `CC=CC(=O)N(CC)c1ccccc1C` [Crotamiton]: −1.426; `C[C@@H]1C[C@@H]([C@H](O)CC2CC(=O)NC(=O)C2)C(=O)[C@@H](C)C1` [Cycloheximide]: −2.003; `COc1ccccc1N1CCN(CCCCNC(=O)c2ccc3ccccc3c2)CC1.Cl.Cl` [DO 897/99]: −0.4139. Still for that read-out and setting: next, `COc1cccc2c1C(=O)c1c(O)c3c(c(O)c1C2=O)C[C@@](O)(C(C)=O)C[C@@H]3O[C@H]1C[C@H](N)[C@H](O)[C@H](C)O1` [Daunorubicin hydrochloride]: −1.999.

For the molecule `CC(=O)N(O)CCCCCNC(=O)CCC(=O)N(O)CCCCCNC(=O)CCC(=O)N(O)CCCCCN` [Deferoxamine mesylate], the z.score.t came to 0.557. The same measure, in the same setting: to `CC(=O)O[C@H]1CC[C@@]2(C)C(=CC[C@@H]3[C@@H]2CC[C@]2(C)C(=O)CC[C@@H]32)C1` [Dehydroisoandosterone 3-acetate] belongs 0.7349; to `CCN1C[C@]2(COC)CC[C@H](OC)[C@]34C5C[C@@H]6[C@@H](OC)C[C@@]7(OCO[C@@]7(C13)[C@@H](O)C24)C5[C@H]6OC` (some centres unmarked) [Delcorine], −0.9741.

Staying with this test, now noted: HTS viability of hPSC-SCs in the presence of 30 mM glucose; Prestwick library; Table S4.
As for `CCCNC(=O)NS(=O)(=O)c1ccc(Cl)cc1` [Chlorpropamide], the z.score.t worked out at 0.1979. Still for that read-out and setting: to `CN(C)CC/C=C1/c2ccccc2Sc2ccc(Cl)cc21` [Chlorprothixene hydrochloride] belongs −0.6678; to `CN(C)[C@@H]1C(O)=C(C(N)=O)C(=O)[C@@]2(O)C(O)=C3C(=O)c4c(O)ccc(Cl)c4[C@@](C)(O)[C@H]3C[C@@H]12` [Chlortetracycline hydrochloride], 0.02534. On the same count and under the same terms, to `NS(=O)(=O)c1cc(C2(O)NC(=O)c3ccccc32)ccc1Cl` (centres unmarked) [Chlorthalidone] belongs −1.061. Same read-out and setting: to `O=c1cc(-c2ccccc2)oc2cc(O)cc(O)c12` [Chrysin] belongs 0.2139; to `Cc1cc(C2CCCCC2)n(O)c(=O)c1.NCCO` [Ciclopirox ethanolamine], −1.422. With `O=C1CCc2cc(OCCCCc3nnnn3C3CCCCC3)ccc2N1` [Cilostazol], the z.score.t was 1.73. On the same count and under the same terms, to `CN/C(=N/CCSCc1nc[nH]c1C)NC#N` [Cimetidine] belongs 0.4346; to `C=C[C@H]1C[N@@]2CC[C@H]1C[C@@H]2[C@@H](O)c1ccnc2ccccc12` [Cinchonine], 1.252.

`C(=C\c1ccccc1)/CN1CCN(C(c2ccccc2)c2ccccc2)CC1` [Cinnarizine]: the z.score.t is recorded as −0.8513. With `CCn1nc(C(=O)O)c(=O)c2cc3c(cc21)OCO3` [Cinoxacin], the z.score.t is given as 0.9525.

As for `CC(C)(Oc1ccc(C2CC2(Cl)Cl)cc1)C(=O)O` (centres unmarked) [Ciprofibrate], the z.score.t is given as −0.2611. Regarding `O=C(O)c1cn(C2CC2)c2cc(N3CCNCC3)c(F)cc2c1=O` [Ciprofloxacin hydrochloride], the z.score.t was 0.6386. On the same count and under the same terms, to `COc1cc(N)c(Cl)cc1C(=O)NC1CCN(CCCOc2ccc(F)cc2)CC1OC` (centres unmarked) [Cisapride] belongs 0.3436; to `CN(C)CCCC1(c2ccc(F)cc2)OCc2cc(C#N)ccc21` (centres unmarked) [Citalopram Hydrobromide], −0.5169; to `COc1cc(N)c(Cl)cc1C(=O)NC1CCN(Cc2ccccc2)CC1` [Clebopride maleate], 1.08. Same read-out and setting: next, `CN1CCC[C@@H]1CCO[C@](C)(c1ccccc1)c1ccc(Cl)cc1` [Clemastine fumarate]: −1.892; `Clc1ccc(Cn2c(CN3CCCC3)nc3ccccc32)cc1` [Clemizole hydrochloride]: 0.7789; `C[N+]12CCC(CC1)C(OC(=O)C(O)(c1ccccc1)c1ccccc1)C2` (centres unmarked) [Clidinium bromide]: 1.743. The same measure, in the same setting: next, `Oc1c(I)cc(Cl)c2cccnc12` [Clioquinol]: −0.2802; `CCC(=O)O[C@]1(C(=O)CCl)[C@@H](C)C[C@H]2[C@@H]3CCC4=CC(=O)C=C[C@]4(C)[C@@]3(F)[C@@H](O)C[C@@]21C` [Clobetasol propionate]: 1.323. Take `C[C@@H]1C[C@H]2[C@@H]3C[C@H](F)C4=CC(=O)C=C[C@]4(C)[C@@]3(Cl)[C@@H](O)C[C@]2(C)[C@H]1C(=O)COC(=O)C(C)(C)C` [Clocortolone pivalate]: the z.score.t was −0.7388. On to `CC(C)/N=c1\cc2n(-c3ccc(Cl)cc3)c3ccccc3nc-2cc1Nc1ccc(Cl)cc1` [Clofazimine], for which the z.score.t is given as −1.765.

For the molecule `CC(C)(Oc1ccc(Cl)cc1)C(=O)O` [Clofibric acid], the z.score.t was −0.8317. On the same count and under the same terms, next, `CCN(CC)CCOc1ccc(C(=C(Cl)c2ccccc2)c2ccccc2)cc1.O=C(O)CC(O)(CC(=O)O)C(=O)O` [Clomiphene citrate (Z,E)]: −1.755. Still for that read-out and setting: next, `CN(C)CCCN1c2ccccc2CCc2ccc(Cl)cc21` [Clomipramine hydrochloride]: −1.637; `Clc1cccc(Cl)c1N=C1NCCN1` [Clonidine hydrochloride]: 1.056; `C[C@@H]1CCC[C@H](C)N1NC(=O)c1ccc(Cl)c(S(N)(=O)=O)c1` [Clopamide]: 0.7847.

As to `Clc1ccc(C(OCCN2CCCCC2)c2ccccc2)cc1` (centres unmarked) [Cloperastine hydrochloride], the z.score.t was −1.185. In the case of `C#CCN(C)CCCOc1ccc(Cl)cc1Cl` [Clorgyline hydrochloride], the z.score.t is given as 0.1556.

In the case of `Nc1cc(C(Cl)=C(Cl)Cl)c(S(N)(=O)=O)cc1S(N)(=O)=O` [Clorsulon], the z.score.t came out at 0.563. As to `Clc1ccccc1C(c1ccccc1)(c1ccccc1)n1ccnc1` [Clotrimazole], the z.score.t is −1.91.

As to `Cc1onc(-c2ccccc2Cl)c1C(=O)N[C@@H]1C(=O)N2[C@@H]1SC(C)(C)[C@@H]2C(=O)O` [Cloxacillin sodium salt], the z.score.t came out at 0.6255. Consider `CN1CCN(C2=Nc3cc(Cl)ccc3Nc3ccccc32)CC1` [Clozapine], for which the z.score.t stood at 1.049. Still for that read-out and setting: to `C[C@H]1[C@H]2CC[C@H]3[C@@H]4CC=C5C[C@@H](N(C)C)CC[C@]5(C)[C@H]4CC[C@]23CN1C` [Conessine] belongs 0.5822; to `COc1ccc(C(=O)OC2C[C@H]3CC[C@@H](C2)N3C)cc1OC.Cl` (some centres unmarked) [Convolamine hydrochloride], 1.345; to `C[C@]12C[C@H](O)[C@H]3[C@@H](CCC4=CC(=O)CC[C@@]43C)[C@@H]1CC[C@@H]2C(=O)CO` [Corticosterone], −0.2486. With `C[C@]12CCC(=O)C=C1CC[C@@H]1[C@@H]2C(=O)C[C@@]2(C)[C@H]1CC[C@]2(O)C(=O)CO` [Cortisone], the z.score.t is 0.9568.

For the molecule `COC(=O)[C@H]1[C@H]2C[C@H]3c4[nH]c5ccccc5c4CCN3C[C@@H]2CC[C@@H]1O.Cl` [Corynanthine hydrochloride], the z.score.t is recorded as 1.095. For the molecule `O=C(O)c1cc(=O)c2c(OCC(O)COc3cccc4oc(C(=O)O)cc(=O)c34)cccc2o1` [Cromolyn disodium salt], the z.score.t was 0.557. Take `CN1CCN(C(c2ccccc2)c2ccccc2)CC1` [Cyclizine hydrochloride]: the z.score.t worked out at 0.5437. Same read-out and setting: to `CN(C)CCC=C1c2ccccc2C=Cc2ccccc21` [Cyclobenzaprine hydrochloride] belongs −0.1641; to `NS(=O)(=O)c1cc2c(cc1Cl)NC(CC1CCCC1)NS2(=O)=O` (centres unmarked) [Cyclopenthiazide], 2.573; to `CN(C)CCOC(=O)C(c1ccccc1)C1(O)CCCC1` (centres unmarked) [Cyclopentolate hydrochloride], −0.5614. The same measure, in the same setting: to `CN1CCC(=C2c3ccccc3C=Cc3ccccc32)CC1` [Cyproheptadine hydrochloride] belongs 0.4486; to `CC(=O)O[C@]1(C(C)=O)CC[C@H]2[C@@H]3C=C(Cl)C4=CC(=O)[C@@H]5C[C@@H]5[C@]4(C)[C@H]3CC[C@@]21C` [Cyproterone acetate], −0.5219; to `N[C@@H]1CONC1=O` [D-cycloserine], 0.9162. On the same count and under the same terms, next, `CN(C)/N=N/c1[nH]cnc1C(N)=O` [Dacarbazine]: −0.6301; `C#C[C@]1(O)CC[C@H]2[C@@H]3CCC4=Cc5oncc5C[C@]4(C)[C@H]3CC[C@@]21C` [Danazol]: 0.1149; `O=C1CN(/N=C/c2ccc(-c3ccc([N+](=O)[O-])cc3)o2)C(O)=N1` [Dantrolene sodium salt]: 1.306.

For the molecule `Nc1ccc(S(=O)(=O)c2ccc(N)cc2)cc1` [Dapsone], the z.score.t worked out at 1.024. Still for that read-out and setting: next, `N=C(N)N1CCc2ccccc2C1` [Debrisoquin sulfate]: 0.6578; `C[N+](C)(C)CCCCCCCCCC[N+](C)(C)C` [Decamethonium bromide]: −1.558. In the case of `C[C@H](CCC(=O)O)[C@H]1CC[C@H]2[C@@H]3C(=O)C[C@@H]4CC(=O)CC[C@]4(C)[C@H]3CC(=O)[C@]12C` [Dehydrocholic acid], the z.score.t was found to be 1.472.
